# In publication PMC5218480 (PLoS ONE, 2017):
# Test system: MV-4-11 cells
# Assay: Gene expression microarray analysis (Affymetrix PrimeView) and GSEA
# Assay type: cell-based, human
# Design: RFU PODN (11730768_x_at) / Fold change /veh PODN (11730768_x_at) / RFU LINC00158 (11744669_a_at) / Fold change /veh LINC00158 (11744669_a_at) / RFU DUSP10 (11751237_a_at) / Fold change /veh DUSP10 (11751237_a_at) / RFU ID3 (11757404_x_at) / Fold change /veh ID3 (11757404_x_at) / RFU PLEKHG5 (11737974_s_at) / Fold change /veh PLEKHG5 (11737974_s_at) / RFU LRRC4B (11730491_at) / Fold change /veh LRRC4B (11730491_at) / RFU GIMAP4 (11747438_a_at) / Fold change /veh GIMAP4 (11747438_a_at) / RFU KRT8 (11758183_x_at) / Fold change /veh KRT8 (11758183_x_at) / RFU CNN1 (11734310_a_at) / Fold change /veh CNN1 (11734310_a_at) / RFU VPS37D (11726825_at) / Fold change /veh VPS37D (11726825_at) / RFU C10orf10 (11716522_x_at) / Fold change /veh C10orf10 (11716522_x_at) / RFU KIR2DL2 /// KIR2DL4 /// KIR2DL5A /// KIR2DL5B /// KIR2DS1 /// KIR2DS2 /// KIR2DS3 /// KIR2DS4 /// KIR3DL3 /// KIR3DL3 /// KIR3DS1 (11738374_at) / Fold change /veh KIR2DL2 /// KIR2DL4 /// KIR2DL5A /// KIR2DL5B /// KIR2DS1 /// KIR2DS2 /// KIR2DS3 /// KIR2DS4 /// KIR3DL3 /// KIR3DL3 /// KIR3DS1 (11738374_at) / RFU C1QL1 (11718748_at) / Fold change /veh C1QL1 (11718748_at) / RFU TMPRSS4 (11747572_a_at) / Fold change /veh TMPRSS4 (11747572_a_at) / RFU HAMP (11756126_x_at) / Fold change /veh HAMP (11756126_x_at) / RFU RNFT2 (11725882_a_at) / Fold change /veh RNFT2 (11725882_a_at) / RFU NR4A2 (11747474_a_at) / Fold change /veh NR4A2 (11747474_a_at) / RFU ABCC12 (11746883_a_at) / Fold change /veh ABCC12 (11746883_a_at) / RFU TMEM136 (11760407_x_at) / Fold change /veh TMEM136 (11760407_x_at) / RFU CLDN22 /// WWC2 (11732394_at) / Fold change /veh CLDN22 /// WWC2 (11732394_at) / RFU HLA-DPB1 (11760878_x_at) / Fold change /veh HLA-DPB1 (11760878_x_at) / RFU SPINT1 (11716480_a_at) / Fold change /veh SPINT1 (11716480_a_at) / RFU GAP43 (11754022_s_at) / Fold change /veh GAP43 (11754022_s_at) / RFU A4GNT (11735810_at) / Fold change /veh A4GNT (11735810_at) / RFU PRB3 (11715151_x_at) / Fold change /veh PRB3 (11715151_x_at) / RFU TUBB4B (11761932_at) / Fold change /veh TUBB4B (11761932_at) / RFU CAPN14 (11732068_a_at) / Fold change /veh CAPN14 (11732068_a_at) / RFU TMCC2 (11721928_a_at) / Fold change /veh TMCC2 (11721928_a_at) / RFU IRGQ (11745062_a_at) / Fold change /veh IRGQ (11745062_a_at) / RFU FAM174B (11720279_a_at) / Fold change /veh FAM174B (11720279_a_at) / RFU TMPRSS4 (11748680_a_at) / Fold change /veh TMPRSS4 (11748680_a_at) / RFU FAM212B (11763350_a_at) / Fold change /veh FAM212B (11763350_a_at) / RFU PLEKHG5 (11743358_a_at) / Fold change /veh PLEKHG5 (11743358_a_at) / RFU ZSCAN30 (11745921_a_at) / Fold change /veh ZSCAN30 (11745921_a_at) / RFU CMKLR1 (11741424_a_at) / Fold change /veh CMKLR1 (11741424_a_at) / RFU LOC101060620 /// MAPK8IP1 (11723275_at) / Fold change /veh LOC101060620 /// MAPK8IP1 (11723275_at) / RFU SPTSSB (11747773_x_at) / Fold change /veh SPTSSB (11747773_x_at) / RFU PRSS12 (11739890_at) / Fold change /veh PRSS12 (11739890_at) / RFU BIN1 (11741810_x_at) / Fold change /veh BIN1 (11741810_x_at) / RFU WNT11 (11732464_a_at) / Fold change /veh WNT11 (11732464_a_at) / RFU C10orf10 (11716521_a_at) / Fold change /veh C10orf10 (11716521_a_at) / RFU C5orf56 (11738089_at) / Fold change /veh C5orf56 (11738089_at) / RFU CYB561 (11721691_x_at) / Fold change /veh CYB561 (11721691_x_at) / RFU ANKRD19P (11752326_a_at) / Fold change /veh ANKRD19P (11752326_a_at) / RFU OR2T12 /// OR2T33 /// OR2T8 (11738714_s_at) / Fold change /veh OR2T12 /// OR2T33 /// OR2T8 (11738714_s_at) / RFU VCAN (11748164_a_at) / Fold change /veh VCAN (11748164_a_at) / RFU JSRP1 (11732532_at) / Fold change /veh JSRP1 (11732532_at) / RFU KRTAP10-11 (11738290_x_at) / Fold change /veh KRTAP10-11 (11738290_x_at) / RFU MYO3A (11730013_a_at) / Fold change /veh MYO3A (11730013_a_at) / RFU EBF3 (11725865_a_at) / Fold change /veh EBF3 (11725865_a_at) / RFU CAMK2N1 (11719241_x_at) / Fold change /veh CAMK2N1 (11719241_x_at) / RFU C5orf56 (11738088_a_at) / Fold change /veh C5orf56 (11738088_a_at) / RFU OLFML3 (11715873_a_at) / Fold change /veh OLFML3 (11715873_a_at) / RFU LOC100653217 /// NTM (11731650_a_at) / Fold change /veh LOC100653217 /// NTM (11731650_a_at) / RFU MAPK11 (11762145_a_at) / Fold change /veh MAPK11 (11762145_a_at) / RFU FIZ1 (11724087_x_at) / Fold change /veh FIZ1 (11724087_x_at) / RFU OASL (11726364_x_at) / Fold change /veh OASL (11726364_x_at) / RFU SOX15 (11748057_x_at) / Fold change /veh SOX15 (11748057_x_at) / RFU CD79A (11719716_a_at) / Fold change /veh CD79A (11719716_a_at) / RFU HIST1H1D (11736915_at) / Fold change /veh HIST1H1D (11736915_at) / RFU CASKIN2 (11723855_a_at) / Fold change /veh CASKIN2 (11723855_a_at) / RFU LOC730098 (11760151_x_at) / Fold change /veh LOC730098 (11760151_x_at) / RFU OR4N2 (11742367_at) / Fold change /veh OR4N2 (11742367_at) / RFU PRRT2 (11749266_a_at) / Fold change /veh PRRT2 (11749266_a_at) / RFU SNX32 (11753110_a_at) / Fold change /veh SNX32 (11753110_a_at) / RFU CDHR5 (11726645_a_at) / Fold change /veh CDHR5 (11726645_a_at) / RFU RCAN1 (11760418_a_at) / Fold change /veh RCAN1 (11760418_a_at) / RFU FAM167A (11723789_a_at) / Fold change /veh FAM167A (11723789_a_at) / RFU FAM26E (11764081_at) / Fold change /veh FAM26E (11764081_at) / RFU ISYNA1 (11749810_s_at) / Fold change /veh ISYNA1 (11749810_s_at) / RFU ACY1 (11761880_at) / Fold change /veh ACY1 (11761880_at) / RFU 11764098_at / Fold change /veh 11764098_at / RFU SAMD14 (11745864_x_at) / Fold change /veh SAMD14 (11745864_x_at) / RFU NPB (11741838_a_at) / Fold change /veh NPB (11741838_a_at) / RFU TMPRSS6 (11731388_a_at) / Fold change /veh TMPRSS6 (11731388_a_at) / RFU KRTAP10-2 (11738614_at) / Fold change /veh KRTAP10-2 (11738614_at) / RFU ARHGAP8 /// PRR5-ARHGAP8 (11727945_x_at) / Fold change /veh ARHGAP8 /// PRR5-ARHGAP8 (11727945_x_at) / RFU KRTAP5-7 /// NADSYN1 (11734609_at) / Fold change /veh KRTAP5-7 /// NADSYN1 (11734609_at) / RFU RASL12 (11751679_a_at) / Fold change /veh RASL12 (11751679_a_at) / RFU CDKN2B (11736163_a_at) / Fold change /veh CDKN2B (11736163_a_at) / RFU PRF1 (11729649_at) / Fold change /veh PRF1 (11729649_at) / RFU, ZNF638 /// ZNF638-IT1 / Fold change vs veh, ZNF638 /// ZNF638-IT1 / RFU, PANK3 / Fold change vs veh, PANK3 / RFU, SH3YL1 / Fold change vs veh, SH3YL1 / RFU, ZEB2 / Fold change vs veh, ZEB2 / RFU, NRIP1 / Fold change vs veh, NRIP1 / RFU, PTTG1IP / Fold change vs veh, PTTG1IP / RFU, CAPN2 / Fold change vs veh, CAPN2 / RFU, MED14 / Fold change vs veh, MED14 / RFU, SNORA58 / Fold change vs veh, SNORA58 / RFU, C1orf63 / Fold change vs veh, C1orf63 / RFU, LRRFIP1 / Fold change vs veh, LRRFIP1 / RFU, NDUFAF7 / Fold change vs veh, NDUFAF7 / RFU, SLC12A2 / Fold change vs veh, SLC12A2 / RFU, IBTK / Fold change vs veh, IBTK / RFU, ESF1 / Fold change vs veh, ESF1 / Fold change vs veh, TMEM50B / RFU, TAOK1 / Fold change vs veh, TAOK1 / RFU, ACBD3 / Fold change vs veh, ACBD3 / RFU, TMA16 / Fold change vs veh, TMA16 / RFU, RWDD3 / Fold change vs veh, RWDD3 / RFU, BCAT1 / Fold change vs veh, BCAT1 / RFU, EDEM3 / Fold change vs veh, EDEM3 / RFU, TMEM33 / Fold change vs veh, TMEM33 / RFU, WDR75 / Fold change vs veh, WDR75 / RFU, AHCTF1 / Fold change vs veh, AHCTF1 / RFU, TFRC / Fold change vs veh, TFRC / RFU, ZDHHC17 / Fold change vs veh, ZDHHC17 / RFU, NOM1 / Fold change vs veh, NOM1 / RFU, ARL8B / Fold change vs veh, ARL8B / RFU, ZBTB11 / Fold change vs veh, ZBTB11 / RFU, TAMM41 / Fold change vs veh, TAMM41 / RFU, KIAA1704 /// LOC100996395 / Fold change vs veh, KIAA1704 /// LOC100996395 / RFU, ING1 / Fold change vs veh, ING1 / RFU, TRMT61B / Fold change vs veh, TRMT61B / RFU, FUBP3 / Fold change vs veh, FUBP3 / RFU, TP53 / Fold change vs veh, TP53 / RFU, TNKS2 / Fold change vs veh, TNKS2 / RFU, ZFP14 / Fold change vs veh, ZFP14 / RFU, ACTR2 / Fold change vs veh, ACTR2 / RFU, PPP3R1 / Fold change vs veh, PPP3R1 / RFU, PIK3R1 / Fold change vs veh, PIK3R1 / RFU, HNRNPA1 / Fold change vs veh, HNRNPA1 / RFU, RNF170 / Fold change vs veh, RNF170 / RFU, ZNF28 / Fold change vs veh, ZNF28 / RFU, RNGTT / Fold change vs veh, RNGTT / RFU, OGT / Fold change vs veh, OGT / RFU, BRD1 / Fold change vs veh, BRD1 / RFU, MARS / Fold change vs veh, MARS / RFU, ZNF655 / Fold change vs veh, ZNF655 / RFU, FAHD1 / Fold change vs veh, FAHD1 / RFU, BDP1 / Fold change vs veh, BDP1 / RFU, LRRCC1 / Fold change vs veh, LRRCC1 / RFU, ARID1A / Fold change vs veh, ARID1A / RFU, ZNF146 / Fold change vs veh, ZNF146 / RFU, ZNF330 / Fold change vs veh, ZNF330 / RFU, GPN3 / Fold change vs veh, GPN3 / RFU, C9orf123 / Fold change vs veh, C9orf123 / RFU, N4BP2L2 / Fold change vs veh, N4BP2L2 / RFU, ARFIP1 / Fold change vs veh, ARFIP1 / RFU, FAM179B / Fold change vs veh, FAM179B / RFU, BCL10 / Fold change vs veh, BCL10 / RFU, UHRF1BP1L / Fold change vs veh, UHRF1BP1L / RFU, BET1 / Fold change vs veh, BET1 / RFU, CNOT2 / Fold change vs veh, CNOT2 / RFU, ZNF268 / Fold change vs veh, ZNF268 / Fold change vs veh, ZNF507 / RFU, DGCR2 / Fold change vs veh, DGCR2 / RFU, WDSUB1 / Fold change vs veh, WDSUB1 / Fold change vs veh, HSP90B1 /// MIR3652 / RFU, ADSS / Fold change vs veh, ADSS / RFU, GK / Fold change vs veh, GK / RFU, ZNF148 / Fold change vs veh, ZNF148 / RFU, TAF9 / Fold change vs veh, TAF9 / RFU, SLC1A5 / Fold change vs veh, SLC1A5 / RFU, SLMO2 / Fold change vs veh, SLMO2 / RFU, ABCC4 / Fold change vs veh, ABCC4 / RFU, LOC101060439 /// RAP1B / Fold change vs veh, LOC101060439 /// RAP1B / RFU, RFX7 / Fold change vs veh, RFX7 / RFU, GTPBP10 / Fold change vs veh, GTPBP10 / RFU, CNEP1R1 / Fold change vs veh, CNEP1R1 / RFU, BIVM-ERCC5 /// ERCC5 / Fold change vs veh, BIVM-ERCC5 /// ERCC5 / RFU, ILF3 / Fold change vs veh, ILF3 / RFU 11762660_at / Fold change /veh 11762660_at / RFU VCAN (11757783_s_at) / Fold change /veh VCAN (11757783_s_at) / RFU DDX43 (11728927_at) / Fold change /veh DDX43 (11728927_at) / RFU KRT8 (11758188_x_at) / Fold change /veh KRT8 (11758188_x_at) / RFU NKD1 (11759106_at) / Fold change /veh NKD1 (11759106_at) / RFU SRD5A1 (11742802_a_at) / Fold change /veh SRD5A1 (11742802_a_at) / RFU TPSAB1 /// TPSB2 (11721975_s_at) / Fold change /veh TPSAB1 /// TPSB2 (11721975_s_at) / RFU GSTM3 (11746129_a_at) / Fold change /veh GSTM3 (11746129_a_at) / RFU IL23R (11737362_x_at) / Fold change /veh IL23R (11737362_x_at) / RFU TMEM51 (11727254_a_at) / Fold change /veh TMEM51 (11727254_a_at) / RFU PIWIL2 (11732686_x_at) / Fold change /veh PIWIL2 (11732686_x_at) / RFU ORM1 (11744905_x_at) / Fold change /veh ORM1 (11744905_x_at) / RFU CCDC152 (11743942_at) / Fold change /veh CCDC152 (11743942_at) / RFU ECM1 (11717891_a_at) / Fold change /veh ECM1 (11717891_a_at) / RFU IL23R (11748794_a_at) / Fold change /veh IL23R (11748794_a_at) / RFU TNFAIP8L3 (11732012_x_at) / Fold change /veh TNFAIP8L3 (11732012_x_at) / RFU MBOAT4 (11741988_at) / Fold change /veh MBOAT4 (11741988_at) / RFU 11764193_at / Fold change /veh 11764193_at / RFU TMEM53 (11763286_at) / Fold change /veh TMEM53 (11763286_at) / RFU MAGEB2 (11727129_at) / Fold change /veh MAGEB2 (11727129_at) / RFU TMEM200A (11744735_a_at) / Fold change /veh TMEM200A (11744735_a_at) / RFU CCDC152 (11751479_a_at) / Fold change /veh CCDC152 (11751479_a_at) / RFU FAM211A (11726209_a_at) / Fold change /veh FAM211A (11726209_a_at) / RFU RGS16 (11746705_a_at) / Fold change /veh RGS16 (11746705_a_at) / RFU VCAN (11755009_s_at) / Fold change /veh VCAN (11755009_s_at) / RFU RHOB (11743442_s_at) / Fold change /veh RHOB (11743442_s_at) / RFU RGS16 (11720943_a_at) / Fold change /veh RGS16 (11720943_a_at) / RFU RGS16 (11720944_at) / Fold change /veh RGS16 (11720944_at) / RFU, VPS4B / Fold change vs veh, VPS4B / RFU, CREB1 / Fold change vs veh, CREB1 / RFU, DNAJC13 / Fold change vs veh, DNAJC13 / RFU, GNAQ / Fold change vs veh, GNAQ / RFU, CDK5R1 / Fold change vs veh, CDK5R1 / RFU, ZRANB3 / Fold change vs veh, ZRANB3 / RFU, CUL4A / Fold change vs veh, CUL4A / RFU, CCNY / Fold change vs veh, CCNY / RFU, UFL1 / Fold change vs veh, UFL1 / RFU, COG3 / Fold change vs veh, COG3 / RFU, DIAPH2 / Fold change vs veh, DIAPH2 / RFU, SKA2 / Fold change vs veh, SKA2 / RFU, AFF3 / Fold change vs veh, AFF3 / RFU, LMF1 / Fold change vs veh, LMF1 / RFU, IPO11 / Fold change vs veh, IPO11 / RFU, DFFB / Fold change vs veh, DFFB / RFU, FOXP1 / Fold change vs veh, FOXP1 / RFU, CARD8 / Fold change vs veh, CARD8 / RFU, STRN3 / Fold change vs veh, STRN3 / RFU, ADK / Fold change vs veh, ADK / RFU, RASSF2 / Fold change vs veh, RASSF2 / RFU, WIPF1 / Fold change vs veh, WIPF1 / RFU, LARP1B / Fold change vs veh, LARP1B / RFU, RASA1 / Fold change vs veh, RASA1 / RFU, RB1 / Fold change vs veh, RB1 / RFU, PPFIA1 / Fold change vs veh, PPFIA1 / RFU, MAT2A / Fold change vs veh, MAT2A / RFU, CCT5 / Fold change vs veh, CCT5 / RFU, WDR92 / Fold change vs veh, WDR92 / RFU, CUX1 / Fold change vs veh, CUX1 / RFU, TTC7A / Fold change vs veh, TTC7A / RFU, TMEM135 / Fold change vs veh, TMEM135 / RFU, DEPTOR / Fold change vs veh, DEPTOR / RFU, CPM / Fold change vs veh, CPM / RFU, DNAJB6 / Fold change vs veh, DNAJB6 / RFU, CACNA2D3 / Fold change vs veh, CACNA2D3 / RFU, DTX4 / Fold change vs veh, DTX4 / RFU, TFCP2 / Fold change vs veh, TFCP2 / RFU, GMCL1 /// GMCL1P1 / Fold change vs veh, GMCL1 /// GMCL1P1 / RFU, AEBP2 / Fold change vs veh, AEBP2 / RFU, SNHG1 /// SNORD22 /// SNORD25 /// SNORD26 /// SNORD27 /// SNORD28 /// SNORD29 /// SNORD31 / Fold change vs veh, SNHG1 /// SNORD22 /// SNORD25 /// SNORD26 /// SNORD27 /// SNORD28 /// SNORD29 /// SNORD31 / Fold change (Aza/veh), C12orf56 (ProbeSet 11735607_a_at) / Fold change (ACY-1035/veh), C12orf56 (ProbeSet 11735607_a_at) / Fold change (Aza/veh), FGFR1OP (ProbeSet 11751329_s_at) / Fold change (ACY-1035/veh), FGFR1OP (ProbeSet 11751329_s_at) / Fold change (Aza/veh), VPS36 (ProbeSet 11739960_a_at) / Fold change (ACY-1035/veh), VPS36 (ProbeSet 11739960_a_at) / RFU SYPL1 (11715823_x_at) / Fold change /veh SYPL1 (11715823_x_at) / RFU IGFBP7 (11715501_s_at) / Fold change /veh IGFBP7 (11715501_s_at) / RFU REEP3 (11722064_at) / Fold change /veh REEP3 (11722064_at) / RFU IGLL1 (11728026_x_at) / Fold change /veh IGLL1 (11728026_x_at): dose or concentration left out as unconfirmed
# Settings: MV-4-11 cells, 48 hours
smiles,measurement,value
Nc1ccc(-c2cccs2)cc1NC(=O)c1ccc2c(c1)cc(C1CC1)n2CCN1CCOCC1 [ACY-1035],RFU MYO3A (11730013_a_at),90.31 RFU
